Here are results for one substance from patent publication US8778889B2, “Antimicrobial decapeptide oral hygiene treatment” (The United States of America as represented by the …, priority 2003, dated 2014).

Ends that are not written are not given here. Bounds are passed on as bounds.

One data set deals with VRE WRAMC #6. The data set is classed as cell-based, Enterococci. From the text: (§1) As shown in the table below, many drug-resistant pathogens including multidrug-resistant Acinetobacter baumannii (clinical isolates) were susceptible to the bactericidal activity of the newly developed antimicrobial peptides. […] This is shown by their lower MIC and MBC against a number of antibiotic-resistant bacteria including methicillin-resistant Staphylococcus aureus, vancomycin-resistant Enterococci, and multidrug-resistant Acinetobacter baumannii. Many of these resistant strains are involved in nosocomial infections, which affect the immunocompromised and the elderly individuals with weakened defenses. The tests were done in a broth microdilution assay as described in our earlier publication (Concannon et al., 2003).

The next data set deals with VRE VVRAMC #7. The data set is classed as cell-based, Enterococci.
Text: as §1

The next data set concerns VRE ATCC #51299. The data set is classed as cell-based, Enterococci.
Text: as §1

For the next data set, the system named is VRE WRAMC #3. Type of data set: cell-based, Enterococci.
Text: as §1

The procedure of data set [1]: The chewing gum formulations were prepared following a procedure described previously. The gum base was heated at a temperature between 50 and 60° C. for melting. When the gum base was of the proper fluid consistency, the KSL was added as a fine powder along with the other components. The temperature was kept constant while mixing the components with the gum base in a mortar. After mixing, the homogenous chewing gum mixture was extruded, cut into squares of approximate shape and size and hardened at room temperature overnight. The composition of the gum was as follows: 550 mg of gum base, 420 mg of sorbitol, 10 mg of mannitol, 10 mg of saccharin, and 10, 20 or 30 mg of KSL (total weight: approximately 1 g). In vitro release study of KSL from chewing gums was carried out using an in vitro chewing release apparatus consisting of two modules (AB FIA, Lund, Sweden) (FIG. 1). Each module consists of a thermostatted glass cell in which two vertically oriented pistons holding an upper and a lower chewing plate are mounted. The cells were filled with 40 ml of artificial saliva and the chewing gum was loaded onto the lower chewing surface. […] The released amount of KSL was determined by RP-HPLC.

The test system of data set [2] is oral biofilms formed on saliva-coated HA disks by salivary bacteria. The experiment in a line: In vitro plaque assay, viable counts of oral biofilms on saliva-coated HA disks. The data set is classed as cell-based, human salivary bacteria. Conditions: KSL 200 μg/ml. From the text: In conjunction with the dual flow cell system, a modification of an in vitro plaque model of biofilm formation described by Guggenheim et al. (Guggenheim et al., 2001) was used to determine the effects of tested antimicrobials and other agents on developed oral biofilms (see Appendix I for details). HA disks (Clarkson, south Williamsport, Pa.) were employed as substrates for salivary bacteria to form biofilms.
To determine the inhibitory activity of KSL on developed oral biofilms, disks containing 45 h-old biofilms were transferred to wells containing aqueous KSL (200 μg/ml; 1 ml/well). Following 30 min exposure at 37° C., disks were rinsed with 3×1 ml of saline and transferred to sterile 15 ml polypropylene tubes containing 1 ml PBS. Biofilm cells adherent to surfaces (after treatment) were recovered by sonicating for 2 min at 5 watts with a Microson ultrasonic cell disrupter equipped with a cup horn (Misonix Inc., Farmingdale, N.Y.). Settings including the time interval used in the sonication were predetermined empirically to yield maximal recovery of adherent biofilm cells.
The effect of KSL on disrupted biofilms was assessed by recovering biofilm cells from HA disks (45 h-old biofilms) through sonication as described above. The detached biofilm cells (in sterile dH2O) were mixed with an equal volume of aqueous KSL to obtain a final peptide concentration of 200 μg/ml, and the reaction mixtures incubated at 37° C. for 30 min. The interactions of KSL and suspended biofilm cells were terminated by washing in PBS.
To determine the effect of the surface-active agent (benzalkonium chloride; Sigma, St. Louis, Mo.) in promoting the killing of intact biofilms by KSL, 66 h-old oral biofilms were treated with KSL (200 μg/ml), benzalkonium chloride (0.001%), or a combination of the two agents, followed by viable counts determinations and confocal laser scanning microscopy of treated samples.
Viable counts of biofilm cells derived from treated disks or disrupted biofilms were determined by spiral plating serially diluted samples onto blood agar plates. Distilled water or 0.12% aqueous chlorhexidine digluconate (Sigma) was used as the negative or positive control, respectively. The 45 h-old biofilms were exposed to chlorhexidine for 1 min, and to water for 30 min at 37° C.
In this assay, HA disks (Clarkson Chromatography Products, Inc., South Williamsport, Pa.) were used as surfaces on which plaque formation can occur. Before use, sterile HA disks were conditioned in the wells of a 24-well microtiter plate (Becton Dickinson, Franklin Lakes, N.J.) containing 50% sterile saliva by incubating at room temperature for a minimum of two hours on a rotating platform at 95 rpm. The saliva was removed and each well inoculated with isolated salivary bacteria at a bacterial cell concentration of 1.0×10^7 cells/ml in sterile 50% whole saliva. After two hours of incubation (with rotation) at 37° C. to allow the bacteria to adhere to surfaces, unattached bacteria were removed and replaced with supplemented saliva-based medium. The plates were incubated with rotation at 37° C. for 45 h (with medium replaced three times), or 66 h (with medium replaced five times) in a CO2 incubator prior to treatments, and the recovery of biofilm cells from treated or untreated disks.
In these studies, KSL or KSL-W was used at 200 μg/ml, whereas Bzl and CPC were used at 0.001% and 0.0025%, respectively. […]

For the substance “KKVVFKVKFK-NH2 [KSL, Lys-Lys-Val-Val-Phe-Lys-Val-Lys-Phe-Lys-NH2]”, the MBC in the data set on VRE WRAMC #6 is 100 µg/mL; against VRE VVRAMC #7 it was 100 µg/mL; against VRE ATCC #51299, more than 200 µg/mL; in the data set with VRE WRAMC #3 it was more than 200 µg/mL. Besides, the MIC against VRE ATCC #51299 and with VRE WRAMC #3 was more than 200 µg/mL in each case. The “stability of KSL during the gum manufacturing process (HPLC of released KSL)” value in data set [1] is “remains stable”. Besides, in data set [2] (45 h-old biofilms disrupted by sonication, 30 min, 37° C.), the “reduction of viability, disrupted biofilms, versus dH2O-treated control cells” value is given as 1.8 log. Besides, the “effect on viability of intact biofilms compared to water treatment” value in data set [2] (66 h-old oral biofilms, benzalkonium chloride 0.001%) was “less effect on the viability”. Further, the “reduction of viable counts, intact biofilms” value in data set [2] (intact 45-h-old biofilms, 30 min, 37° C.) was “small reduction of viable counts”.
